Assay results as given in patent US12459921B2, “Isoindoline compound, preparation method, pharmaceutical composition and use thereof” (SHANGHAI INSTITUTE OF MATERIA MEDICA, CHINESE ACADEMY OF …, priority 2018, dated 2025).
pIC50: −log10 of the molar value.

Test system: MM.1S cells
Assay: Inhibitory effect on the proliferation of MM.1S, MTS cell viability test
Assay type: cell-based
Conditions: Homo sapiens, MM1.S, 168 h, multiple myeloma MM.1S cells, 7 days incubation, read-out: Tumor cell inhibitory activity
How it was run: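 MM.1S cells (20,000/well, RPMI 1640 with 10% FBS) exposed to 5-fold compound dilutions at 0.2% DMSO for 7 days at 37° C, 5% CO2. MTS added for 3-4 h; OD490-OD690 gave inhibition versus DMSO, IC50 fitted, mean of three experiments.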

pIC50 | SMILES
> 7.00 | COc1ccccc1N1CCN(CCCCCc2cccc3c2CN(C2CCC(=O)NC2=O)C3=O)CC1 (stereo not shown) [Example 19, 3-(4-(5-(4-(2-methoxyphenyl)piperazine-1-)pentyl)-1-oxoindoline-2-)piperidine-2,6-dione]
6.00 to 7.00 | O=C1CCC(N2Cc3c(OCCCC(=O)N4CCC5(CC4)OCc4ccc(Cl)cc45)cccc3C2=O)C(=O)N1 (stereo not shown) [Example 153]
6.00 to 7.00 | O=C1CCC(N2Cc3c(CCCCCN4CCOCC4)cccc3C2=O)C(=O)N1 (stereo not shown) [Example 16, 3-(4-(5-morpholinpentyl)-1-oxoisoindoline-2)-piperidine-2,6-dione]
< 4.70 | N[C@@H](CCCc1cccc2c1CN(C1CCC(=O)NC1=O)C2=O)C(=O)NC12CC3CC(CC(C3)C1)C2 (stereo partly drawn) [Example 174, (2S)—N-((3R,5R,7R)-adamantane-1-)-2-amino-5-(2-(2,6-dioxopiperidine-3-)-1-oxoisoindoline-4-)pentanamide]
> 7.00 | Cc1ccc(NC(=O)[C@H](CCCc2cccc3c2CN(C2CCC(=O)NC2=O)C3=O)NC(=O)C2CCC2)cc1Cl (stereo partly drawn) [Example 187, N-((2S)-1-((3-chloro-4-methylphenyl)amino)-5-(2-(2,6-dioxopiperidine-3-)-1-oxoisoindoline-4-)-1-oxopentyl-2-)cyclobutylcarboxamide]
6.00 to 7.00 | Cc1ccc2nc(C(F)(F)F)cc(OCCCCCc3cccc4c3CN(C3CCC(=O)NC3=O)C4=O)c2c1 (stereo not shown) [Example 7, 3-(4-(5-((6-methyl-2-(trifluoromethyl)quinoline-4-)oxy)pentyl)-1-oxoisoindoline-2-)piperidine-2,6-dione]
6.00 to 7.00 | N[C@@H](CCCc1cccc2c1CN(C1CCC(=O)NC1=O)C2=O)c1nc2cccc(Br)c2[nH]1 (stereo in doubt) [Example 195, 3-(4-((S)-4-amino-4-(7-bromo-1H-benzo[d]imidazole-2-)butyl)-1-oxoisoindoline-2-)piperidine-2,6-dione]
> 7.00 | O=C1CCC(N2Cc3c(CCCCN4CCN(c5ccc([N+](=O)[O-])cc5)CC4)cccc3C2=O)C(=O)N1 (stereo not shown) [Example 42, 3-(4-(4-(4-(4-nitrophenyl)piperazine-1-)butyl)-1-oxoisoindoline-2-)piperidine-2,6-dione]
6.00 to 7.00 | CC(=O)N[C@@H](CCCc1cccc2c1CN(C1CCC(=O)NC1=O)C2=O)c1nc2cccc(Br)c2[nH]1 (stereo partly drawn) [Example 197, N-((1S)-1-(7-bromo-1H-benzo[d]imidazole-2-)-4-(2-(2,6-dioxopiperidine-3-)-1-oxoisoindoline-4-)butyl)acetamide]
4.70 to 6.00 | CC(=O)N[C@@H](CCCc1cccc2c1CN(C1CCC(=O)NC1=O)C2=O)C(=O)N[C@@H](C)c1ccccc1 (stereo partly drawn) [Example 171, (2S)-2-acetylamino-5-(2-(2,6-dioxopiperidine-3-)-1-oxoisoindoline-4-)-N—((S)-1-phenethyl)pentanamide]
> 7.00 | O=C1CCC(N2Cc3c(CCCCN4CCN(c5ccc(Cl)cc5Cl)CC4)cccc3C2=O)C(=O)N1 (stereo not shown) [Example 222, 3-(4-(4-(4-(2,4-dichlorophenyl)piperazine-1-yl)butyl)-1-oxoisoindoline-2-yl)piperidine-2,6-dione]
> 7.00 | N#Cc1ccccc1N1CCN(CCCCc2cccc3c2CN(C2CCC(=O)NC2=O)C3=O)CC1 (stereo not shown) [Example 38, 2-(4-(4-(2-(2,6-dioxopiperidine-3-)-1-oxoisoindoline-4-)butyl)piperazine-1-)benzonitrile]
6.00 to 7.00 | O=C1CCC(N2Cc3c(OCCCN4CCN(c5cccc(Cl)c5Cl)CC4)cccc3C2=O)C(=O)N1 (stereo not shown) [Example 238, 3-(4-(3-(4-(2,3-dichlorophenyl)piperazine-1-yl)propoxy)-1-oxoisoindoline-2-yl)piperidine-2,6-dione]

Second part, the compound before the results:

SMILES | pIC50
N#CC1(c2cccc(Cl)c2)CCN(CCCCCOc2cccc3c2CN(C2CCC(=O)NC2=O)C3=O)CC1 (stereo not shown) [Example 79, 4-(3-chlorophenyl)-1-(5-((2-(2,6-dioxopiperidine-3-)-1-oxoisoindoline-4-)oxy)pentyl)piperidine-4-carbonitrile] | > 7.00
N#CC1(c2ccc(OC(F)(F)F)cc2Cl)CCN(CCCCCc2cccc3c2CN(C2CCC(=O)NC2=O)C3=O)CC1 (stereo not shown) [Example 258, 4-(2-chloro-4-(trifluoromethoxy)phenyl)-1-(5-(2-(2,6-dioxopiperidin-3-yl)-1-oxoisoindolin-4-yl)pentyl)piperidine-4-carbonitrile] | 6.00 to 7.00
N#CC1(c2cc(Cl)ccc2Cl)CCN(CCCCc2cccc3c2CN(C2CCC(=O)NC2=O)C3=O)CC1 (stereo not shown) [Example 269, 4-(2,5-dichlorophenyl)-1-(4-(2-(2,6-dioxopiperidin-3-yl)-1-oxoisoindoline-4-yl)butyl)piperidine-4-carbonitrile] | 6.00 to 7.00
N#CC1(c2cccc(OC(F)(F)F)c2)CCN(CCCCCc2cccc3c2CN(C2CCC(=O)NC2=O)C3=O)CC1 (stereo not shown) [Example 94, 1-(5-(2-(2,6-dioxopiperidine-3-)-1-oxoisoindoline-4-)pentyl)-4-(3-trifluoromethoxyphenyl) piperidine-4-carbonitrile] | > 7.00
CCc1cc(OCCCCOc2cccc3c2CN(C2CCC(=O)NC2=O)C3=O)c2ccccc2n1 (stereo not shown) [Example 10, 3-(4-(4-((2-ethylquinoline-4-)oxy)butoxy)-1-oxoisoindoline-2-)piperidine-2,6-dione] | > 7.00
O=C1CCC(N2Cc3c(CCCCCN4CCC5(CC4)OC(=O)Nc4ccccc45)cccc3C2=O)C(=O)N1 (stereo not shown) [Example 125, 3-(1-oxo-4-(5-(2-oxo-1,2-dihydrospiro[benzo[d][1,3]oxazine-4,4′-piperidine]-1′-)pentyl)isoindoline-2-)piperidine-2,6-dione] | 6.00 to 7.00
O=C1CCC(N2Cc3c(OCCCN4CCC5(CC4)OCc4ccc(F)cc45)cccc3C2=O)C(=O)N1 (stereo not shown) [Example 142, 3-(4-(3-(6-fluoro-3H-spiro[isobenzofuran-1,4′-piperidine]-1′-)propoxy)-1-oxoisoindoline-2-)piperidine-2,6-dione] | 6.00 to 7.00
O=C1CCC(N2Cc3c(CCCCCN4CCC5(CC4)OCc4ccc(Cl)cc45)cccc3C2=O)C(=O)N1 (stereo not shown) [Example 127] | 6.00 to 7.00
O=C1CCC(N2Cc3c(OCCCCOc4cc(C5CC5)nc5ccccc45)cccc3C2=O)C(=O)N1 (stereo not shown) [Example 8, 3-(4-(4-((2-cyclopropylquinoline-4-)oxy)butoxy)-1-oxoisoindoline-2-)piperidine-2,6-dione] | > 7.00
O=C1CCC(N2Cc3c(OCCCCCN4CCC5(CC4)OCc4ccc(F)cc45)cccc3C2=O)C(=O)N1 (stereo not shown) [Example 144, 3-(4-((5-(6-fluoro-3H-spiro[isobenzofuran-1,4-piperidine]-1-)pentyl)oxy)-1-oxoisoindoline-2-)piperidine-2,6-dione] | > 7.00
O=C1CCC(N2Cc3c(CCCCCN4CCC5(CC4)OC(=O)Nc4ccc(Cl)cc45)cccc3C2=O)C(=O)N1 (stereo not shown) [Example 277, 3-(4-(5-(6-chloro-2-oxo-1,2-dihydrospiro[benzo[1,3]oxazine-4,4′-piperidine]-1′-yl)pentyl)-1-oxoisoindolin-2-yl)piperidine-2,6-dione] | 6.00 to 7.00
N#CC1(c2ccc(OC(F)(F)F)cc2Cl)CCN(CCCCc2cccc3c2CN(C2CCC(=O)NC2=O)C3=O)CC1 (stereo not shown) [Example 257, 4-(2-chloro-4-(trifluoromethoxy)phenyl)-1-(4-(2-(2,6-dioxopiperidin-3-yl)-1-oxoisoindolin-4-yl)butyl)piperidine-4-carbonitrile] | 6.00 to 7.00
